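Following 48 hours of exposure in 96-well plates, responses at five concentrations were used to interpolate endpoints linearly. GI50 marks 50% less growth.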 Activity calls are given as the source filed them. No stated cut-off is given here; in the data, active = GI50 up to about 1.1 µM and inactive = higher.
What was measured:
Assay in all cases: inhibition of tumour cell growth, NCI panel, 48 h
SF-539 = test system: SF-539
SK-MEL-2 = test system: SK-MEL-2
SW-620 = test system: SW-620
SK-MEL-28 = test system: SK-MEL-28
A498 = test system: A498
M14 = test system: M14
MOLT-4 = test system: MOLT-4
A549 = test system: A549
RXF 631 = test system: RXF 631
HT-29 = test system: HT-29
HOP-92 = test system: HOP-92
COLO 205 = test system: COLO 205
SK-OV-3 = test system: SK-OV-3
OVCAR-5 = test system: OVCAR-5
SN12C = test system: SN12C
KM-20L2 = test system: KM-20L2
SNB-75 = test system: SNB-75
ACHN = test system: ACHN
EKVX = test system: EKVX
HCC 2998 = test system: HCC 2998
UO-31 = test system: UO-31
TK-10 = test system: TK-10
RXF 393 = test system: RXF 393
Malme-3M = test system: Malme-3M
HCT-116 = test system: HCT-116
HCT-15 = test system: HCT-15
HOP-18 = test system: HOP-18
RPMI-8226 = test system: RPMI-8226
NCI-H226 = test system: NCI-H226
SF-268 = test system: SF-268
CAKI-1 = test system: CAKI-1
786-0 = test system: 786-0
LXFL 529 = test system: LXFL 529
SNB-19 = test system: SNB-19
U-251 = test system: U-251
SR = test system: SR
HOP-62 = test system: HOP-62
CCRF-CEM = test system: CCRF-CEM
OVCAR-3 = test system: OVCAR-3
OVCAR-8 = test system: OVCAR-8
IGROV-1 = test system: IGROV-1
NCI-H522 = test system: NCI-H522
UACC-257 = test system: UACC-257
SF-295 = test system: SF-295
LOX IMVI = test system: LOX IMVI
DMS-273 = test system: DMS-273
UACC-62 = test system: UACC-62
OVCAR-4 = test system: OVCAR-4
NCI-H23 = test system: NCI-H23
NCI-H460 = test system: NCI-H460
SNB-78 = test system: SNB-78
SK-MEL-5 = test system: SK-MEL-5
K562 = test system: K562
KM12 = test system: KM12
DLD-1 = test system: DLD-1
M19-MEL = test system: M19-MEL
XF498 = test system: XF498
DMS-114 = test system: DMS-114
HL-60 = test system: HL-60

`CCOC(=O)NC1C2CC(=O)OC(O2)C1OC(C)=O` (centres undefined) was tested, and the GI50 (SF-539) was > 100 µM (inactive), the GI50 (SK-MEL-2) was > 100 µM (inactive) and the GI50 (SW-620) was > 100 µM (inactive). For the same molecule, the GI50 (SK-MEL-28) was > 100 µM (inactive), the GI50 (A498) was > 100 µM (inactive) and the GI50 (M14) was > 100 µM (inactive). The GI50 (MOLT-4) was > 100 µM (inactive), the GI50 (A549) was > 100 µM (inactive) and the GI50 (RXF 631) was > 100 µM (inactive). For the same molecule, the GI50 (HT-29) was > 100 µM (inactive), the GI50 (HOP-92) was > 100 µM (inactive) and the GI50 (COLO 205) was > 100 µM (inactive). For the same molecule, the GI50 (SK-OV-3) was > 100 µM (inactive), the GI50 (OVCAR-5) was > 100 µM (inactive) and the GI50 (SN12C) was 99.3 µM (inactive). The GI50 (KM-20L2) was > 100 µM (inactive), the GI50 (SNB-75) was > 100 µM (inactive) and the GI50 (ACHN) was > 100 µM (inactive). The GI50 (EKVX) was > 100 µM (inactive), the GI50 (HCC 2998) was > 100 µM (inactive) and the GI50 (UO-31) was 60.7 µM (inactive). The GI50 (TK-10) was > 100 µM (inactive), the GI50 (RXF 393) was > 100 µM (inactive) and the GI50 (Malme-3M) was > 100 µM (inactive). For the same molecule, the GI50 (HCT-116) was > 100 µM (inactive), the GI50 (HCT-15) was > 100 µM and the GI50 (HOP-18) was > 100 µM (inactive). For the same molecule, the GI50 (RPMI-8226) was > 100 µM (inactive), the GI50 (NCI-H226) was 0.424 µM (active) and the GI50 (SF-268) was > 100 µM (inactive). The GI50 (CAKI-1) was > 100 µM (inactive), the GI50 (786-0) was > 100 µM (inactive) and the GI50 (LXFL 529) was > 100 µM (inactive). The GI50 (SNB-19) was > 100 µM (inactive), the GI50 (U-251) was > 100 µM (inactive) and the GI50 (SR) was > 100 µM (inactive). For the same molecule, the GI50 (HOP-62) was > 100 µM (inactive), the GI50 (CCRF-CEM) was > 100 µM (inactive) and the GI50 (OVCAR-3) was > 100 µM (inactive). For the same molecule, the GI50 (OVCAR-8) was > 100 µM (inactive), the GI50 (IGROV-1) was 59.7 µM (inactive) and the GI50 (NCI-H522) was > 100 µM (inactive). For the same molecule, the GI50 (UACC-257) was > 100 µM (inactive), the GI50 (SF-295) was > 100 µM (inactive) and the GI50 (LOX IMVI) was > 100 µM (inactive). The GI50 (DMS-273) was > 100 µM (inactive), the GI50 (UACC-62) was > 100 µM (inactive) and the GI50 (OVCAR-4) was > 100 µM (inactive). The GI50 (NCI-H23) was > 100 µM (inactive), the GI50 (NCI-H460) was > 100 µM (inactive) and the GI50 (SNB-78) was > 100 µM (inactive). For the same molecule, the GI50 (SK-MEL-5) was > 100 µM (inactive), the GI50 (K562) was > 100 µM (inactive) and the GI50 (KM12) was > 100 µM (inactive). For the same molecule, the GI50 (DLD-1) was 90.6 µM (inactive) and the GI50 (M19-MEL) was > 100 µM (inactive).
`CCOC(=O)COc1cccc2c1C(=O)CCO2` was tested, and the GI50 (SF-539) was > 100 µM (inactive), the GI50 (SK-MEL-2) was > 100 µM (inactive) and the GI50 (SW-620) was > 100 µM (inactive). The GI50 (SK-MEL-28) was > 100 µM (inactive), the GI50 (A498) was > 100 µM (inactive) and the GI50 (M14) was > 100 µM (inactive). For the same molecule, the GI50 (XF498) was > 100 µM (inactive), the GI50 (MOLT-4) was > 100 µM (inactive) and the GI50 (A549) was > 100 µM (inactive). The GI50 (RXF 631) was > 100 µM (inactive), the GI50 (HT-29) was > 100 µM (inactive) and the GI50 (DMS-114) was > 100 µM (inactive). The GI50 (COLO 205) was > 100 µM (inactive), the GI50 (SK-OV-3) was > 100 µM (inactive) and the GI50 (OVCAR-5) was > 100 µM (inactive). For the same molecule, the GI50 (SN12C) was > 100 µM (inactive), the GI50 (KM-20L2) was > 100 µM (inactive) and the GI50 (ACHN) was > 100 µM (inactive). The GI50 (EKVX) was > 100 µM (inactive), the GI50 (HCC 2998) was > 100 µM (inactive) and the GI50 (UO-31) was > 100 µM (inactive). The GI50 (TK-10) was > 100 µM (inactive), the GI50 (Malme-3M) was > 100 µM (inactive) and the GI50 (HCT-116) was > 100 µM (inactive). The GI50 (HCT-15) was > 100 µM, the GI50 (RPMI-8226) was > 100 µM (inactive) and the GI50 (SF-268) was > 100 µM (inactive). The GI50 (CAKI-1) was > 100 µM (inactive), the GI50 (786-0) was > 100 µM (inactive) and the GI50 (LXFL 529) was > 100 µM (inactive). For the same molecule, the GI50 (SNB-19) was > 100 µM (inactive), the GI50 (U-251) was > 100 µM (inactive) and the GI50 (HL-60) was > 100 µM (inactive). The GI50 (HOP-62) was > 100 µM (inactive), the GI50 (CCRF-CEM) was > 100 µM (inactive) and the GI50 (OVCAR-3) was > 100 µM (inactive). For the same molecule, the GI50 (OVCAR-8) was > 100 µM (inactive), the GI50 (IGROV-1) was > 100 µM (inactive) and the GI50 (NCI-H522) was > 100 µM (inactive). The GI50 (UACC-257) was > 100 µM (inactive), the GI50 (SF-295) was > 100 µM (inactive) and the GI50 (LOX IMVI) was > 100 µM (inactive). For the same molecule, the GI50 (DMS-273) was > 100 µM (inactive), the GI50 (UACC-62) was > 100 µM (inactive) and the GI50 (OVCAR-4) was > 100 µM (inactive). The GI50 (NCI-H23) was > 100 µM (inactive), the GI50 (NCI-H460) was > 100 µM (inactive) and the GI50 (SNB-78) was > 100 µM (inactive). The GI50 (SK-MEL-5) was > 100 µM (inactive), the GI50 (K562) was > 100 µM (inactive) and the GI50 (KM12) was > 100 µM (inactive). For the same molecule, the GI50 (DLD-1) was > 100 µM (inactive) and the GI50 (M19-MEL) was > 100 µM (inactive).
